From patent publication US20240270801A1, “EPITOPE PEPTIDE OF HUMAN ALPHA-SYNUCLEIN AND PHARMACEUTICAL COMPOSITION INCLUDING SAID PEPTIDE” (Sumitomo Pharma Co., Ltd., priority 2021, published 2024)
Non-standard residues stand in square brackets, D forms with d. No end group written: not given here. KLH = keyhole limpet hemocyanin; Ahx = NCCCCCC(=O)O

How the values were obtained:
human αSyn = experiment: Antibody-inducing ability in mice: ELISA antibody titer of immune serum with respect to human αSyn; type: in vivo, mouse; set-up: key to Antibody titer with respect to human αSyn, relative to control: log titer relative to control conjugate (control = 1); settings: for Antibody titer compared with control conjugate (in words): Example 9, mice, human αSyn and aggregated human αSyn, control AJ-p150 or AJ-p54; for Antibody titer with respect to human αSyn, relative to control / Antibody titer (N = 4 − 6, mean ± standard deviation) with respect to human αSyn: mice; for Antibody titer with respect to human αSyn (N = 4 − 6, mean ± standard deviation): Example 2, serum 2 weeks after second administration; for Antibody titer (N = 4 − 6, mean ± standard deviation) with respect to human αSyn: Example 3, same manner as Example 2
Experimental: (§1) Using the various AJ peptide-human αSyn peptide conjugates produced in Example 1, an antibody-inducing ability with respect to human αSyn in mice was evaluated. The various AJ-human αSyn peptide conjugates (250 μg/mouse) or KLH-DMPVDPDN (25 μg/mouse) in physiological saline were intramuscularly administered to balb/c mice (females, 6 weeks old, CLEA Japan, Inc.) twice at a 2-week interval for immunization using aluminum hydroxide (Alum) (InvivoGen, 50 μg/mouse) as an adjuvant. As a negative control, physiological saline (100 μL/mouse) comprising the same amount of aluminum hydroxide was administered twice. Two weeks after the second administration, serum was recovered to evaluate the antibody titer with respect to human αSyn by ELISA.
ELISA was performed by the following method. 96-well plates were coated with human αSyn (Sigma) at 0.2 μg/well. After washing with PBST (Phosphate Buffered Saline comprising 0.05% Tween) once, blocking was performed with 3% skim milk (FUJIFILM Wako Pure Chemical Corporation). After washing with PBST three times, diluted serum was added to cause a reaction at room temperature for 1 hour. Furthermore, after washing with PBST three times, Goat anti-mouse IgG-HRP (abcam) was added to cause a reaction at room temperature for 1 hour. After washing with PBST three times, SureBlue TMB Microwell Peroxidase Substrate (KPL) was added to cause a reaction at room temperature for 10 minutes while light shielding. An equal volume of a TMB Stop Solution (KPL) was added to stop the reaction, and the absorbance at 450 nm was measured. ELISA with respect to aggregated human αSyn was performed by coating with the aggregated human αSyn (Stress Marq) at 15 ng/well instead of human αSyn in the above-mentioned method. […]
The antibody-inducing ability of the produced various human αSyn peptide conjugates with respect to human αSyn and aggregated human αSyn in the mice was evaluated by the method described in Example 2 using the antibody titers with respect to human αSyn and aggregated human αSyn of the mouse immune serum. […] In Table 6, the antibody titer of AJ-p242, AJ-p244, AJ-p347, or AJ-p361 is shown with the antibody titer of AJ-p150 as a control being 1 (logarithm). In addition, the antibody titers of AJ-p229, AJ-p237, and AJ-p298 are shown with the antibody titer of AJ-p54 as a control being 1 (logarithm). […]

aggregated human αSyn = experiment: Antibody-inducing ability in mice: ELISA antibody titer of immune serum with respect to aggregated human αSyn; type: in vivo, mouse; settings: for Antibody titer with respect to aggregated human αSyn, relative to control: mice; for Antibody titer with respect to aggregated human αSyn (N = 4 − 6, mean ± standard deviation): Example 2, serum 2 weeks after second administration
Experimental: as §1
ELISA was performed by the following method. 96-well plates were coated with human αSyn (Sigma) at 0.2 μg/well. After washing with PBST (Phosphate Buffered Saline comprising 0.05% Tween) once, blocking was performed with 3% skim milk (FUJIFILM Wako Pure Chemical Corporation). After washing with PBST three times, diluted serum was added to cause a reaction at room temperature for 1 hour. Furthermore, after washing with PBST three times, Goat anti-mouse IgG-HRP (abcam) was added to cause a reaction at room temperature for 1 hour. After washing with PBST three times, SureBlue TMB Microwell Peroxidase Substrate (KPL) was added to cause a reaction at room temperature for 10 minutes while light shielding. An equal volume of a TMB Stop Solution (KPL) was added to stop the reaction, and the absorbance at 450 nm was measured. ELISA with respect to aggregated human αSyn was performed by coating with the aggregated human αSyn (Stress Marq) at 15 ng/well instead of human αSyn in the above-mentioned method.
The antibody-inducing ability of the AJ-human αSyn peptide conjugates (AJ-p54, AJ-p54-KLH, and AJ-DMPVDPDN) produced in Example 1 with respect to human αSyn and aggregated human αSyn in mice was evaluated. Physiological saline or the AJ-human αSyn peptide conjugate (250 μg/mouse) was intramuscularly administered to balb/c mice (females, 6 weeks old, CLEA Japan, Inc.) twice at a 2-week interval using Alum (InvivoGen, 50 μg/mouse) as an adjuvant. Furthermore, KLH-DMPVDPDN (25 μg/mouse) was administered using Alum (InvivoGen, 50 μg/mouse) as an adjuvant. Two weeks after the second administration, serum was recovered to evaluate the antibody titer by ELISA. ELISA was performed by the method described in Example 2.
The antibody-inducing ability of the produced various human αSyn peptide conjugates with respect to human αSyn and aggregated human αSyn in the mice was evaluated by the method described in Example 2 using the antibody titers with respect to human αSyn and aggregated human αSyn of the mouse immune serum. […] In Table 6, the antibody titer of AJ-p242, AJ-p244, AJ-p347, or AJ-p361 is shown with the antibody titer of AJ-p150 as a control being 1 (logarithm). In addition, the antibody titers of AJ-p229, AJ-p237, and AJ-p298 are shown with the antibody titer of AJ-p54 as a control being 1 (logarithm).
The antibody-inducing ability of the AJ-human αSyn peptide conjugates with a modified linker with respect to human αSyn and aggregated human αSyn in the mice was evaluated using the antibody titers with respect to human αSyn and aggregated human αSyn of the mouse immune serum. […] In Table 8, the antibody titers of the AJ-human αSyn peptide conjugates with various modified linkers comprising p54 are shown with the antibody titer of AJ-p54 as a control being 1 (logarithm). In addition, the antibody titers of the AJ-human αSyn peptide conjugates with various modified linkers comprising p150 are shown with the antibody titer of AJ-p150 as a control being 1 (logarithm).

[1] = Example 9, N = 4, titer of AJ-p150 or AJ-p54 as control being 1 (logarithm)
[2] = balb/c mice, i.m. twice at 2-week interval, Alum, AJ conjugates 250 μg/mouse, KLH-DMPVDPDN 25 μg/mouse
[3] = Example 4, balb/c mice, i.m. twice at 2-week interval, Alum, AJ conjugates 250 μg/mouse, KLH-DMPVDPDN 25 μg/mouse
[4] = Example 10, modified linker, titer of AJ-p54 or AJ-p150 as control being 1 (logarithm)

| Substance | Antibody titer compared with control conjugate (in words) (human αSyn) | Antibody titer with respect to human αSyn, relative to control (human αSyn; [1]) | Antibody titer with respect to aggregated human αSyn, relative to control (aggregated human αSyn; [1]) | Antibody titer with respect to human αSyn (N = 4 − 6, mean ± standard deviation) (human αSyn; [2]) | Antibody titer with respect to aggregated human αSyn (N = 4 − 6, mean ± standard deviation) (aggregated human αSyn; [2]) | other results |
| --- | --- | --- | --- | --- | --- | --- |
| ELKLIFLHRLKRLRKRLKRKXDAFEMPSEEG (ELKLIFLHRLKRLRKRLKRK[Ahx]DAFEMPSEEG) [AJ-p361] | same level of an antibody titer | 0.92 | 0.95 |  |  |  |
| ELKLIFLHRLKRLRKRLKRKXDAYEMPSEEG (ELKLIFLHRLKRLRKRLKRK[Ahx]DAYEMPSEEG) [AJ-p276] |  |  |  | 1792 ± 512 | 896 ± 256 |  |
| ELKLIFLHRLKRLRKRLKRKXDMPVDPDN (ELKLIFLHRLKRLRKRLKRK[Ahx]DMPVDPDN) [AJ-DMPVDPDN, reference compound] |  |  |  |  |  | Induction of the antibody to human αSyn (in words) (human αSyn; Example 4, balb/c mice): very weak antibody-inducing effect; Antibody titer with respect to human αSyn (mean ± standard deviation) (human αSyn; [3]): 168 ± 122; Induction of the antibody to aggregated human αSyn (in words) (aggregated human αSyn; Example 4, balb/c mice): very weak antibody-inducing effect; Antibody titer with respect to aggregated human αSyn (mean ± standard deviation) (aggregated human αSyn; [3]): 358 ± 140 |
| ELKLIFLHRLKRLRKRLKRKXEAAEMPSEEG (ELKLIFLHRLKRLRKRLKRK[Ahx]EAAEMPSEEG) [AJ-p244] | same level of an antibody titer | 1.06 | 1.10 |  |  |  |
| ELKLIFLHRLKRLRKRLKRKXEAFEMPSEEG (ELKLIFLHRLKRLRKRLKRK[Ahx]EAFEMPSEEG) [AJ-p277] |  |  |  | 1920 ± 1585 | 576 ± 322 |  |
| ELKLIFLHRLKRLRKRLKRKXEAYEMPSEDG (ELKLIFLHRLKRLRKRLKRK[Ahx]EAYEMPSEDG) [AJ-p283, AJ peptide linked to p283 via ε-Acp (X)] |  |  |  | 2304 ± 1289 | 1152 ± 644 | Antibody-inducing ability regarding the aggregated human αSyn (in words) (aggregated human αSyn; Example 2, balb/c mice): particularly strong antibody-inducing ability |
| ELKLIFLHRLKRLRKRLKRKXEAYEMPSEE (ELKLIFLHRLKRLRKRLKRK[Ahx]EAYEMPSEE) [AJ-p150, AJ peptide linked to p150 via ε-Acp (X)] |  | 1 | 1 | 2176 ± 1471 | 576 ± 322 | Antibody titer with respect to human αSyn, relative to control (human αSyn; [4]): 1; Antibody titer with respect to aggregated human αSyn, relative to control (aggregated human αSyn; [4]): 1 |
| ELKLIFLHRLKRLRKRLKRKXHAFEMPSEEG (ELKLIFLHRLKRLRKRLKRK[Ahx]HAFEMPSEEG) [AJ-p347] | same level of an antibody titer | 0.97 | 0.97 |  |  |  |
| ELKLIFLHRLKRLRKRLKRKXKKDELGKDE (ELKLIFLHRLKRLRKRLKRK[Ahx]KKDELGKDE) [AJ-p298] | same level of an antibody titer | 0.82 | 0.93 |  |  |  |
| KKDQLGKNE-C-KLH (KKDQLGKNEC-{KLH}) [p54-KLH, KLH-human αSyn peptide conjugate] |  |  |  |  |  | Induction of the antibody to human αSyn (in words) (human αSyn; Example 3, mice): the antibody to human αSyn was induced; Antibody titer (N = 4 − 6, mean ± standard deviation) with respect to human αSyn (human αSyn): 3072 ± 2748 |
| KLH-C-ELKLIFLHRLKRLRKRLKRKXKKDQLGKNE ({KLH}-CELKLIFLHRLKRLRKRLKRK[Ahx]KKDQLGKNE) [KLH-AJ-p54, KLH-modified AJ-human αSyn peptide conjugate, KLH linked via cysteine to the N-terminal] |  |  |  |  |  | Induction of the antibody to human αSyn (in words) (human αSyn; Example 3, mice): induced to the same extent; Antibody titer (N = 4 − 6, mean ± standard deviation) with respect to human αSyn (human αSyn): 1707 ± 1240 |
| KLH-C-KKDQLGKNE ({KLH}-CKKDQLGKNE) [KLH-p54, KLH-human αSyn peptide conjugate] |  |  |  |  |  | Induction of the antibody to human αSyn (in words) (human αSyn; Example 3, mice): the antibody to human αSyn was induced; Antibody titer (N = 4 − 6, mean ± standard deviation) with respect to human αSyn (human αSyn): 4096 ± 2243 |
